ChEMBL document CHEMBL4308825, “Positive and Negative Allosteric Modulators of N-Methyl-d-aspartate (NMDA) Receptors: Structure-Activity Relationships and Mechanisms of Action” (J Med Chem, 2018)

Tests used:
[1] = biological target: T1, Glutamate receptor ionotropic, NMDA 2A (Homo sapiens, UniProt Q05586+Q12879); experiment: Negative allosteric modulation of human GluN2A receptor expressed in xenopus laevis oocytes assessed as reduction in 3 uM glycine-induced channel current at -40 mV holding potential by two electrode voltage clamp method; assay type: cell-based
T1 sequence (Q12879 whole entry, one chain of several): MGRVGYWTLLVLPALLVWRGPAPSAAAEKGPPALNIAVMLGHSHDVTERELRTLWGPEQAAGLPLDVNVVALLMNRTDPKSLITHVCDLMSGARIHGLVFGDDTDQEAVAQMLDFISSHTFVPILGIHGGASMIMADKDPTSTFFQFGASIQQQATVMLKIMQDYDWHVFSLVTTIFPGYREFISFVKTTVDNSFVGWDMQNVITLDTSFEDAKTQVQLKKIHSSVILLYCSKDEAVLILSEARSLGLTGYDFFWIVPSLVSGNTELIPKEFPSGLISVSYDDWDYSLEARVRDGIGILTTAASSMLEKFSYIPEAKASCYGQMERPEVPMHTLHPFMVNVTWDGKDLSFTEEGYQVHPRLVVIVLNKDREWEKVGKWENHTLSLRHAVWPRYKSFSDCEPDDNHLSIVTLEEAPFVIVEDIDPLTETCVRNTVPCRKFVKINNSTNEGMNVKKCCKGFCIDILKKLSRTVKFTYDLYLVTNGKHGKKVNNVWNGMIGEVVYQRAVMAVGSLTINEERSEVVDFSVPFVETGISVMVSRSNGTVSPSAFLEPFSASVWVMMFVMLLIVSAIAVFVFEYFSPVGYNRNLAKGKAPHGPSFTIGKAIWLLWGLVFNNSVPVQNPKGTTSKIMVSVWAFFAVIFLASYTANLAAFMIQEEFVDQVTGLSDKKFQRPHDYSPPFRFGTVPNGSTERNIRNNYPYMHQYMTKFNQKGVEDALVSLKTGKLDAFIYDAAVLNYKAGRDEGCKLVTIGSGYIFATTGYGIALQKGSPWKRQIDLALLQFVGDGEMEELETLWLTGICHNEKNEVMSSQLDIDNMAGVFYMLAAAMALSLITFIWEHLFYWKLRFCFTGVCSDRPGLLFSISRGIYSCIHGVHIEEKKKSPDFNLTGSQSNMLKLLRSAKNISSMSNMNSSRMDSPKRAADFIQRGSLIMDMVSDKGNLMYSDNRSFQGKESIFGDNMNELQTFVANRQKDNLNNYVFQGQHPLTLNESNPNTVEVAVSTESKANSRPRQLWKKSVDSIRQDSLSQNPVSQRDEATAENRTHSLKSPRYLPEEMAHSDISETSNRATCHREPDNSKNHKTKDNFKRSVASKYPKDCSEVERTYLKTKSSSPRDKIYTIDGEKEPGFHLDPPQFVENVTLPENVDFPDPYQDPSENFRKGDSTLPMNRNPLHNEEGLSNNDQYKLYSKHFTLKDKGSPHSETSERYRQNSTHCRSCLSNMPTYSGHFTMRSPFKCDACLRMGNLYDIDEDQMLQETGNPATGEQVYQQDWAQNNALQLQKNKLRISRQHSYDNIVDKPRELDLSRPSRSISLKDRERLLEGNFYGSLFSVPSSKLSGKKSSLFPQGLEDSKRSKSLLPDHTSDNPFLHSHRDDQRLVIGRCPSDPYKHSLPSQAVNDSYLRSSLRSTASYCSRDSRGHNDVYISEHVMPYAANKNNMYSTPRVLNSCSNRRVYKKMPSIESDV

[2] = biological target: T2, Glutamate receptor ionotropic, NMDA 2C (Homo sapiens, UniProt Q05586+Q14957); experiment: Negative allosteric modulation of human GluN2C receptor expressed in xenopus laevis oocytes assessed as reduction in 3 uM glycine-induced channel current at -40 mV holding potential by two electrode voltage clamp method; assay type: cell-based
[3] = biological target: T3, Glutamate receptor ionotropic, NMDA 2D (Homo sapiens, UniProt O15399+Q05586); experiment: Negative allosteric modulation of human GluN2D receptor expressed in xenopus laevis oocytes assessed as reduction in 3 uM glycine-induced channel current at -40 mV holding potential by two electrode voltage clamp method; assay type: cell-based
T3 sequence (O15399 whole entry, one chain of several): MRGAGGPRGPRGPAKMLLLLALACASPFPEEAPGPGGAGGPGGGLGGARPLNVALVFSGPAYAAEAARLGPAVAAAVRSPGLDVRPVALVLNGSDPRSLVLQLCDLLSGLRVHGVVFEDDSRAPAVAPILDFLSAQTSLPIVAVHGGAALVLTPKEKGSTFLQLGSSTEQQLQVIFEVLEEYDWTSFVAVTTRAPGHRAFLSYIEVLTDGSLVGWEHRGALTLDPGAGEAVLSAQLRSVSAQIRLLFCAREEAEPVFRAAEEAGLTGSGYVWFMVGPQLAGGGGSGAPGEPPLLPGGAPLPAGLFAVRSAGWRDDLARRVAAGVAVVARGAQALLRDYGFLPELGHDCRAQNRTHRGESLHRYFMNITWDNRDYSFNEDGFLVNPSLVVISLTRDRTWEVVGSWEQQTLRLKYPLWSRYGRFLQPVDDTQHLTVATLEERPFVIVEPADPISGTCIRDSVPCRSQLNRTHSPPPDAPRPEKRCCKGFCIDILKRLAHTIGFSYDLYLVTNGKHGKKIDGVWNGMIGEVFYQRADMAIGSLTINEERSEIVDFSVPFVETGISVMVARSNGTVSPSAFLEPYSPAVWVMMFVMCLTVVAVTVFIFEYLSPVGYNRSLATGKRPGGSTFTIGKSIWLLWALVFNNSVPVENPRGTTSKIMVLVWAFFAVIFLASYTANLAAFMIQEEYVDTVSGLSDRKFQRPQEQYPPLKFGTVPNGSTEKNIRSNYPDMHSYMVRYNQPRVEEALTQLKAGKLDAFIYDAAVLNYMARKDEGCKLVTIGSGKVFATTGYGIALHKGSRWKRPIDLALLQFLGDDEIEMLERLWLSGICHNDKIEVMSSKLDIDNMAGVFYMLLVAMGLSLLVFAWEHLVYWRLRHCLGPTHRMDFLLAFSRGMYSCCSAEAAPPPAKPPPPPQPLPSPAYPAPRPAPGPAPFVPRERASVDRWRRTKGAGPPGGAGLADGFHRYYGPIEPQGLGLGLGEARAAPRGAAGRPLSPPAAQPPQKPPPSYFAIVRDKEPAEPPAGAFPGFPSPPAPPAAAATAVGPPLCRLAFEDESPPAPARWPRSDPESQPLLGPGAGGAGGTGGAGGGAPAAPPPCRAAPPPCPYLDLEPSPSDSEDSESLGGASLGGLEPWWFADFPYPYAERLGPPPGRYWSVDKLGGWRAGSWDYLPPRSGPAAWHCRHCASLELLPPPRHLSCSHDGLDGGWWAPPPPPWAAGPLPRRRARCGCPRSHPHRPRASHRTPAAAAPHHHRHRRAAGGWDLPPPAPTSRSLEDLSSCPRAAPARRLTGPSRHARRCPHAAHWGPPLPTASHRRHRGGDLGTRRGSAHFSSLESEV

[4] = biological target: T3, Glutamate receptor ionotropic, NMDA 2D; experiment: Negative allosteric modulation of GluN2D receptor (unknown origin) expressed in xenopus laevis oocytes assessed as reduction in glycine-induced channel current by two electrode voltage clamp method; assay type: cell-based
[5] = biological target: T2, Glutamate receptor ionotropic, NMDA 2C; experiment: Negative allosteric modulation of GluN2C receptor (unknown origin) expressed in xenopus laevis oocytes assessed as reduction in glycine-induced channel current by two electrode voltage clamp method; assay type: cell-based
[6] = biological target: T1, Glutamate receptor ionotropic, NMDA 2A; experiment: Positive allosteric modulation of GluN2A receptor (unknown origin) expressed in xenopus laevis oocytes assessed as increase in glycine-induced channel current by two electrode voltage clamp method; assay type: cell-based
[7] = biological target: T4, Glutamate receptor ionotropic, NMDA 2B (Homo sapiens, UniProt Q05586+Q13224); experiment: Negative allosteric modulation of GluN2B receptor (unknown origin) expressed in xenopus laevis oocytes assessed as reduction in glycine-induced channel current by two electrode voltage clamp method; assay type: cell-based
T4 sequence (Q13224 whole entry, one chain of several): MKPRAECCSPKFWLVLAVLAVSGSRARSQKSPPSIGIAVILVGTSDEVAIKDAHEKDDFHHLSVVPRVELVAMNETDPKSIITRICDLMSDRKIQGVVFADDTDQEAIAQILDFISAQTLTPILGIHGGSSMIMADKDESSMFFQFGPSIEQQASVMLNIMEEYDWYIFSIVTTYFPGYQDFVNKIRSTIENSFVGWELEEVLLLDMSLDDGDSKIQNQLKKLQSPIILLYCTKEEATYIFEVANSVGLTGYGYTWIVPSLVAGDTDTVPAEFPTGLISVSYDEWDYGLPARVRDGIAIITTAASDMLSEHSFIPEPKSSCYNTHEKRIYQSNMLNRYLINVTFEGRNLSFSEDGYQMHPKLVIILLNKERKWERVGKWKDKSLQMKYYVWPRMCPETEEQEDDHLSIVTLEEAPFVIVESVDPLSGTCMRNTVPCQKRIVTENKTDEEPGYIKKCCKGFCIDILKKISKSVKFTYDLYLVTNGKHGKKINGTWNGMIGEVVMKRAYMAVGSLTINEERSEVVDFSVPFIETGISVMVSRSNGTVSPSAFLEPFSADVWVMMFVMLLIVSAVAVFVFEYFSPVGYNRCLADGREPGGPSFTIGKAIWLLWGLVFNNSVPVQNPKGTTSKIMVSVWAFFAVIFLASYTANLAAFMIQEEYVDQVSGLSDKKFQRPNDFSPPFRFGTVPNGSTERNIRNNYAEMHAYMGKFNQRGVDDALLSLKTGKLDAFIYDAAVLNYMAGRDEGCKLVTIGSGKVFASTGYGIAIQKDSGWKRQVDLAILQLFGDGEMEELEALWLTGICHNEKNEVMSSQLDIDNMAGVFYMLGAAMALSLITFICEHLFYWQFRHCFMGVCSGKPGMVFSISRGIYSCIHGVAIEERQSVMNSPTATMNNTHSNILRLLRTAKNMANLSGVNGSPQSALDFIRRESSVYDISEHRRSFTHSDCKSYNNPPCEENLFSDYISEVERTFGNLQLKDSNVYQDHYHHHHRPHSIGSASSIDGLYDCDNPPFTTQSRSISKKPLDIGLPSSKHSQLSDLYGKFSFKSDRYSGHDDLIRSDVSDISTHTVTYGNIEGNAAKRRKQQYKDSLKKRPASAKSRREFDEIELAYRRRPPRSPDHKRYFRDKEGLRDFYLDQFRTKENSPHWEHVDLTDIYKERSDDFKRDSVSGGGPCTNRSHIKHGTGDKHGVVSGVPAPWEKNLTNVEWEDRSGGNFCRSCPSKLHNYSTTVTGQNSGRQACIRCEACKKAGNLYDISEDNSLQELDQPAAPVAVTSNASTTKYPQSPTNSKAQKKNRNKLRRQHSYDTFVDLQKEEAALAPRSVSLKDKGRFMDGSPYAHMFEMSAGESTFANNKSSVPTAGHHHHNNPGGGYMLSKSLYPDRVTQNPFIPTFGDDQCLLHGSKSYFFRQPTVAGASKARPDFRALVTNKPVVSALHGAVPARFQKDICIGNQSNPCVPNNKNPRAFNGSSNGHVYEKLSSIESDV

[8] = biological target: T1, Glutamate receptor ionotropic, NMDA 2A; experiment: Negative allosteric modulation of GluN2A receptor (unknown origin) expressed in xenopus laevis oocytes assessed as reduction in glycine-induced channel current by two electrode voltage clamp method; assay type: cell-based
Homo sapiens [9] = species: Homo sapiens; experiment: Selectivity ratio of IC50 for GluN2A receptor (unknown origin) expressed in xenopus laevis oocytes to IC50 for GluN2D receptor (unknown origin) expressed in xenopus laevis oocytes; assay type: cell-based
Homo sapiens [10] = species: Homo sapiens; experiment: Selectivity ratio of IC50 for GluN2B receptor (unknown origin) expressed in xenopus laevis oocytes to IC50 for GluN2D receptor (unknown origin) expressed in xenopus laevis oocytes; assay type: cell-based
Homo sapiens [11] = species: Homo sapiens; experiment: Selectivity ratio of IC50 for GluN2B receptor (unknown origin) expressed in xenopus laevis oocytes to IC50 for GluN2C receptor (unknown origin) expressed in xenopus laevis oocytes; assay type: cell-based
Homo sapiens [12] = species: Homo sapiens; experiment: Selectivity ratio of IC50 for GluN2A receptor (unknown origin) expressed in xenopus laevis oocytes to IC50 for GluN2C receptor (unknown origin) expressed in xenopus laevis oocytes; assay type: cell-based
[13] = biological target: T3, Glutamate receptor ionotropic, NMDA 2D; experiment: Positive allosteric modulation of GluN2D receptor (unknown origin) expressed in xenopus laevis oocytes assessed as increase in glycine-induced channel current by two electrode voltage clamp method; assay type: cell-based
[14] = biological target: T2, Glutamate receptor ionotropic, NMDA 2C; experiment: Positive allosteric modulation of GluN2C receptor (unknown origin) expressed in xenopus laevis oocytes assessed as increase in glycine-induced channel current by two electrode voltage clamp method; assay type: cell-based
[15] = biological target: T4, Glutamate receptor ionotropic, NMDA 2B; experiment: Positive allosteric modulation of GluN2B receptor (unknown origin) expressed in xenopus laevis oocytes assessed as increase in glycine-induced channel current by two electrode voltage clamp method; assay type: cell-based
[16] = biological target: T1, Glutamate receptor ionotropic, NMDA 2A; experiment: Positive allosteric modulation of GluN2A receptor (unknown origin) expressed in HEK cell assessed as increase in glycine-induced calcium influx
[17] = biological target: T3, Glutamate receptor ionotropic, NMDA 2D; experiment: Negative allosteric modulation of human GluN2D receptor expressed in HEK cells assessed as reduction in glycine/glutamate-induced intracellular calcium flux preincubated for 5 mins followed by glycine/glutamate addition by Fluo-4-AM dye based FLIPR assay; assay type: cell-based
[18] = biological target: Glutamate receptor ionotropic, NMDA 2B (Homo sapiens, UniProt Q13224); experiment: Positive allosteric modulation of GluN2B receptor (unknown origin) in hippocampal neurons assessed as increase in glycine-induced channel current by two electrode voltage clamp method
[19] = biological target: Glutamate receptor ionotropic, NMDA 2B (Rattus norvegicus, UniProt Q00960); experiment: Positive allosteric modulation of GluN2B receptor in rat spinal cord neurons assessed as increase in glycine-induced channel current by two electrode voltage clamp method
[20] = biological target: T4, Glutamate receptor ionotropic, NMDA 2B; experiment: Positive allosteric modulation of EGFP-fused human GluN2B receptor expressed in HEK293T cells assessed as increase in glycine-induced channel current by two electrode voltage clamp method; assay type: cell-based
[21] = biological target: T3, Glutamate receptor ionotropic, NMDA 2D; experiment: Positive allosteric modulation of EGFP-fused human GluN2D receptor expressed in HEK293T cells assessed as increase in glycine-induced channel current by two electrode voltage clamp method; assay type: cell-based
[22] = biological target: T2, Glutamate receptor ionotropic, NMDA 2C; experiment: Positive allosteric modulation of EGFP-fused human GluN2C receptor expressed in HEK293T cells assessed as increase in glycine-induced channel current by two electrode voltage clamp method; assay type: cell-based
[23] = biological target: T1, Glutamate receptor ionotropic, NMDA 2A; experiment: Positive allosteric modulation of EGFP-fused human GluN2A receptor expressed in HEK293T cells assessed as increase in glycine-induced channel current by two electrode voltage clamp method; assay type: cell-based
[24] = biological target: Glutamate NMDA receptor; GRIN1/GRIN2B (Homo sapiens, UniProt Q05586+Q13224); experiment: Negative allosteric modulation of GluN1a/GluN2B receptor (unknown origin) expressed in xenopus laevis oocytes assessed as reduction in glutamate/glycine-induced channel current at -60 mV holding potential by two electrode voltage clamp method; assay type: cell-based
[25] = biological target: Ionotropic glutamate receptor NMDA 1/2D (Homo sapiens, UniProt O15399+Q05586); experiment: Negative allosteric modulation of GluN1a/GluN2D receptor (unknown origin) expressed in xenopus laevis oocytes assessed as reduction in glutamate/glycine-induced channel current at -60 mV holding potential by two electrode voltage clamp method; assay type: cell-based
Chain of Ionotropic glutamate receptor NMDA 1/2D (O15399 whole entry, other chains not shown): as the sequence (O15399 whole entry, one chain of several) above

[26] = biological target: Ionotropic glutamate receptor NMDA 1/2C (Homo sapiens, UniProt Q05586+Q14957); experiment: Negative allosteric modulation of GluN1a/GluN2C receptor (unknown origin) expressed in xenopus laevis oocytes assessed as reduction in glutamate/glycine-induced channel current at -60 mV holding potential by two electrode voltage clamp method; assay type: cell-based
[27] = biological target: Glutamate NMDA receptor; GRIN1/GRIN2A (Homo sapiens, UniProt Q05586+Q12879); experiment: Negative allosteric modulation of GluN1a/GluN2A receptor (unknown origin) expressed in xenopus laevis oocytes assessed as reduction in glutamate/glycine-induced channel current at -60 mV holding potential by two electrode voltage clamp method; assay type: cell-based

Compound: CC(C(O)c1ccc(O)cc1)N1CCC(Cc2ccccc2)CC1 (stereo unspecified) [IFENPRODIL]
- IC50 [1]: 39.5 µM
- IC50 [2]: 29.1 µM
- IC50 [3]: 75.9 µM

Compound: O=C(O)c1ccc2cc(I)c3ccccc3c2c1
- IC50 [4]: 50 µM
- IC50 [5]: 50 µM
- EC50 [6]: 100 µM

Compound: COc1ccc2nc(/C=C/c3cccc([N+](=O)[O-])c3)n(-c3ccc(C(=O)O)cc3)c(=O)c2c1
- IC50 [4]: 3.9 µM
- IC50 [5]: 7.1 µM
- IC50 [7]: 193 µM
- IC50 [8]: 182 µM

Compound: Cc1sc2nc(COc3ccc(F)cc3)cc(=O)n2c1[C@@H]1C[C@@H]1CO
- EC50 [6]: 8.5 µM

Compound: CCN(CC)C(=S)Oc1ccc(C(=O)Nc2cccc3ccccc23)cc1
- Ratio IC50 (Homo sapiens [9]): > 400
- IC50 [4]: 1.4 µM
- IC50 [5]: 2.6 µM
- Ratio IC50 (Homo sapiens [10]): > 400
- Ratio IC50 (Homo sapiens [11]): > 400
- Ratio IC50 (Homo sapiens [12]): > 400

Compound: O=C(O)c1cc2cccc(O)c2cc1O
- IC50 [5]: 15 µM
- IC50 [7]: 9.4 µM
- EC50 [13]: 10 µM
- IC50 [8]: 9.7 µM

Compound: CC(C)CCCc1ccc2cc(C(=O)O)ccc2c1
- EC50 [13]: 29 µM
- EC50 [6]: 28 µM
- EC50 [14]: 37 µM
- EC50 [15]: 34 µM

Compound: CCCc1nc2[nH]c(C)c(NS(=O)(=O)c3ccc(C4CCCCC4)cc3)c(=O)n2n1
- EC50 [13]: 6.7 µM
- EC50 [6]: 3.2 µM
- EC50 [14]: 6.6 µM
- EC50 [15]: 15.7 µM

Compound: CCN(Cc1cc(=O)n2c3c(sc2n1)CCC3)c1ccc(F)cc1
- EC50 [16]: 2.43 µM

Compound: Cc1ccc2[nH]c(=O)c(C3=NN(C(=O)CCC(=O)O)C(c4ccc(Br)cc4)C3)c(-c3ccccc3)c2c1 (stereo unspecified)
- IC50 [5]: 7 µM
- IC50 [7]: 113 µM

Compound: O=C(NNC(=O)c1ccc(CNS(=O)(=O)c2ccc(F)c(Cl)c2)cc1)c1ccccc1
- IC50 [17]: > 30 µM
- IC50 [2]: > 10 µM
- IC50 [3]: > 10 µM

Compound: O=C(O)CCC(=O)N1N=C(c2c(-c3ccccc3)c3cc(Br)ccc3[nH]c2=O)CC1c1ccc(Br)cc1 (stereo unspecified)
- IC50 [4]: 2.7 µM
- IC50 [5]: 5.4 µM
- IC50 [7]: 19 µM
- IC50 [8]: 78 µM

Compound: O=C(O)c1cc2cc(-c3ccccc3)ccc2c(Br)c1O
- IC50 [4]: 2.4 µM
- IC50 [5]: 2 µM
- IC50 [7]: 2.4 µM
- IC50 [8]: 1.8 µM

Compound: COC(=O)c1ccc(C2C(C(C)=O)=C(O)C(=O)N2CCc2c(C)[nH]c3ccccc23)cc1 (stereo unspecified)
- EC50 [14]: 13 µM

Compound: COc1ccc(OCC2c3cc(OC)c(OC)cc3CCN2C(=O)c2cccc(Cl)c2)cc1 (stereo unspecified)
- EC50 [13]: 2.8 µM
- EC50 [6]: > 10 µM
- EC50 [14]: 2.7 µM
- EC50 [15]: > 10 µM

Compound: Cc1nccn1Cc1cc(-c2ccc(F)c(C(F)F)c2)cnn1 [EVT-101 FREE BASE]
- IC50 [7]: 0.012 µM

Compound: CC(=O)[C@H]1CC[C@H]2[C@@H]3CC[C@@H]4C[C@H](OS(=O)(=O)O)CC[C@]4(C)[C@H]3CC[C@]12C
- IC50 [4]: 14 µM
- IC50 [5]: 12 µM
- IC50 [7]: 38 µM
- IC50 [8]: 62 µM

Compound: NCCCNCCCCNCCCN [SPERMINE]
- EC50 [18]: 125 µM
- EC50 [19]: 81 µM
- EC50 [15]: 127 µM

Compound: CC(=O)[C@H]1CC[C@H]2[C@@H]3CC=C4C[C@@H](OS(=O)(=O)O)CC[C@]4(C)[C@H]3CC[C@]12C
- IC50 [4]: 118 µM
- EC50 [20]: 63 µM
- IC50 [5]: 112 µM
- EC50 [21]: 78 µM
- EC50 [22]: 83 µM
- EC50 [23]: 34 µM
- EC50 [6]: 21 µM
- EC50 [15]: 33 µM

Compound: C[C@@H](CN1CCC(Cc2ccccc2)CC1)[C@@H](O)c1ccc(O)cc1
- IC50 [7]: 0.009 µM
- IC50 [8]: 52 µM

Compound: O=C(O)c1cc2cc(Br)ccc2oc1=O
- IC50 [24]: 90 µM
- IC50 [25]: 426 µM
- IC50 [8]: 18.6 µM
- IC50 [26]: 68 µM
- IC50 [27]: 19 µM
